Here are results for three compounds from PubChem BioAssay AID332 (DTP/NCI, 2004).

The test system of this assay is mice, ADJ-PC-20 plasma cell tumor sc, T/C %. Description: NCI In Vivo Anticancer Drug Screen. Data for tumor model ADJ-PC-20 Plasma Cell (subcutaneous) in unknown mice. The following applies: endpoint: mean tumor weight, schedule: Q01DX010 (ip), higher = larger tumour. On the procedure:
The antitumor activity of compounds was measured in mice bearing transplantable tumors. Survival or tumor size were measured and the results are expressed as the measurement made in the treated group (T) divided by the measurement made in the vehicle treated control group (C). The tumor model used in this assay is ADJ-PC-20 Plasma Cell (subcutaneous) in unknown mice

Molecules are shown by their SMILES. Records with an inconclusive call do not appear.

As to `COC1=C(N)C(=O)c2nc(-c3nc(C(=O)O)c(C)c(-c4ccc(OC)c(OC)c4O)c3N)ccc2C1=O`, the T/C by setting is: (dose: 0.02 mg/kg/injection, vehicle: other) 97 % of control; (dose: 0.04 mg/kg/injection, vehicle: other) 66 % of control; (dose: 0.08 mg/kg/injection, vehicle: other) 71 % of control; (dose: 0.17 mg/kg/injection, vehicle: other) 44 % of control; (dose: 0.34 mg/kg/injection, vehicle: other) 13 % of control.
Turning to `CN(N=O)C(=O)NC(C=O)C(O)C(O)C(O)CO` (stereo not drawn), where the note is “dose: 50.0 mg/kg/injection, vehicle: saline”, the T/C is 68 % of control.
For `C=CC(CN1CC1)OC(C)=O` (stereo not drawn), the T/C was 72 % of control (dose: 3.75 mg/kg/injection, vehicle: carboxymethylcellulose (CMC)) and 40 % of control (dose: 7.5 mg/kg/injection, vehicle: carboxymethylcellulose (CMC)).
